According to US20260297080A1, “BICYCLIC COMPOUNDS AS CDK INHIBITORS” (BeOne Medicines I GmbH, priority 2022, published 2026):

Legend:
CDK1/Cyclin B1 = CDK1/Cyclin B1 (Homo sapiens, UniProt P06493); test: CDK1/Cyclin B1 Biochemical Assay (TR-FRET), 0.015 mM ATP; conditions: 0.15 μM Rb (Ser780)-biotin substrate, pH7.0, 60 min preincubation, 120 min reaction, room temperature
Procedure: (§1) CDK2/Cyclin E1 and CDK1/Cyclin B1 Biochemical Assays
(§2) Compounds disclosed herein were tested for inhibition of CDK2/Cyclin E1 or CDK1/Cyclin B1 kinase in an assay based on the time-resolved fluorescence-resonance energy transfer (TR-FRET) methodology. The assay was carried out in 384-well low volume black plates in a reaction mixture containing CDK2/Cyclin E1 or CDK1/Cyclin B1, 0.060 mM ATP for CDK2/Cyclin E1 or 0.015 mM ATP for CDK1/Cyclin B1, 0.15 μM Rb (Ser780)-biotin substrate and 0-10 μM compound in buffer containing 50 mM HEPES pH7.0, 0.02% NaN3, 0.01% BSA, 0.1 mM Orthovanadate, 50 mM MgCl2, 1 mM DTT and 0.005% Tween-20. The kinase was incubated with compound for 60 minutes at room temperature and the reaction was initiated by the addition of ATP and Rb (Ser780)-biotin substrate. After reaction at room temperature for 120 minutes, an equal volume of stop/detection solution was added according to the manufacture's instruction (Cisbio Bioassays). The stop/detection solution contained Streptavidin-XL665 and Anti-pRb (Ser780) mAb-Eu Cryptate in Detection buffer (Cisbio Bioassays). Plates were incubated at room temperature for 60 minutes, and the TR-FRET signals (ex337 nm, em665 nm/620 nm) were recorded on a PHERAstar FSX plate reader (BMG Labtech). The inhibition percentage of CDK2/Cyclin E1 or CDK1/Cyclin B1 kinase activity in presence of increasing concentrations of compounds was calculated based on the ratio of fluorescence at 665 nm to that at 620 nm. The IC50 for each compound was derived from fitting the data to the four-parameter logistic equation by Dotmatics.

CDK2/Cyclin E1 = CDK2/Cyclin E1 (Homo sapiens, UniProt P24941); test: CDK2/Cyclin E1 Biochemical Assay (TR-FRET), 0.060 mM ATP; conditions: 0.15 μM Rb (Ser780)-biotin substrate, pH7.0, 60 min preincubation, 120 min reaction, room temperature
Procedure: as §1, §2

Sequence of CDK1/Cyclin B1 (P06493 whole entry): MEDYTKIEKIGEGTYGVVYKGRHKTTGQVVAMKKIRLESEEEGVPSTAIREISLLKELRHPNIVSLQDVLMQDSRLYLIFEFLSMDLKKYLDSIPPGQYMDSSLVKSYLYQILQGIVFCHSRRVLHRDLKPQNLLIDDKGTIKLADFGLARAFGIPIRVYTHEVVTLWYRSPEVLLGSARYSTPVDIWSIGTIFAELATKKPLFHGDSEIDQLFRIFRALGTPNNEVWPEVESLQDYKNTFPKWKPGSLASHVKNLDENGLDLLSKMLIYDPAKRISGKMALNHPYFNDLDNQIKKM
Sequence of CDK1/Cyclin B1 (P14635 whole entry partner): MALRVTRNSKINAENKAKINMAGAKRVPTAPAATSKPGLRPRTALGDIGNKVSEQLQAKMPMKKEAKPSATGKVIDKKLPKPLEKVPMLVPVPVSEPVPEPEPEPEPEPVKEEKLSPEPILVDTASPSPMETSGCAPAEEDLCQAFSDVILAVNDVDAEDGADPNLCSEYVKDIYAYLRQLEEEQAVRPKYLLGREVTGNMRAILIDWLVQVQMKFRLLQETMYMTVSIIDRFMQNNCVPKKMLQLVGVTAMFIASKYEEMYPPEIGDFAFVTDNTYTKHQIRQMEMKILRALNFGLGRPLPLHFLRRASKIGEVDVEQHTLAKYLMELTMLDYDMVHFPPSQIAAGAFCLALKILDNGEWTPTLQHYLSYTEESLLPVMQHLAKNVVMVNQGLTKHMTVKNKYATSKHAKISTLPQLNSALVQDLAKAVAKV

Row | IC50 (CDK1/Cyclin B1) [µM] | IC50 (CDK2/Cyclin E1) [µM] | SMILES
1 | 0.163 | 0.0024 | CC1(NC(=O)O[C@H]2CC[C@@H](c3cc(Nc4ccc5c(c4F)CNS5(=O)=O)n[nH]3)C2)CCOC1 (mixture of isomers) [Example 162, cis-3-(3-((4-fluoro-1,1-dioxido-2,3-dihydrobenzo[d]isothiazol-5-yl)amino)-1H-pyrazol-5-yl)cyclopentyl(3-methyltetrahydrofuran-3-yl)carbamate]
2 | 0.294 | 0.005 | CC1(NC(=O)O[C@H]2CC[C@@H](c3cc(Nc4ccc5c(c4F)CNS5(=O)=O)n[nH]3)C2)COC1 (racemic) [Example 164, cis-3-(3-((4-fluoro-1,1-dioxido-2,3-dihydrobenzo[d]isothiazol-5-yl)amino)-1H-pyrazol-5-yl)cyclopentyl(3-methyloxetan-3-yl)carbamate]
3 | 0.249 | 0.005 | CN1c2ccc(Nc3cc([C@@H]4CC[C@H](OC(=O)NC5CCC5)C4)[nH]n3)cc2CS1(=O)=O (racemic) [Example 227, cis-3-(3-((1-methyl-2,2-dioxido-1,3-dihydrobenzo[c]isothiazol-5-yl)amino)-1H-pyrazol-5-yl)cyclopentyl cyclobutylcarbamate]
4 | 0.029 | 0.0021 | CC1(NC(=O)O[C@H]2CC[C@@H](c3cc(Nc4ccc5c(c4)CCS(=O)(=O)N5)n[nH]3)C2)CC1 (racemic) [Example 249, cis-3-(3-((2,2-dioxido-3,4-dihydro-1H-benzo[c][1,2]thiazin-6-yl)amino)-1H-pyrazol-5-yl)cyclopentyl(1-methylcyclopropyl)carbamate]
5 | 0.025 | 0.0004 | CC(C)NC(=O)O[C@H]1CC[C@@H](c2cc(Nc3ccc4c(c3F)CS(=O)(=O)N4)n[nH]2)C1 (racemic) [Example 251, cis-3-(3-((4-fluoro-2,2-dioxido-1,3-dihydrobenzo[c]isothiazol-5-yl)amino)-1H-pyrazol-5-yl)cyclopentyl isopropylcarbamate]
6 | 0.249 | 0.01 | CC(C)NC(=O)O[C@H]1CC[C@@H](c2cc(Nc3ccc4c(c3F)CS(=O)(=O)N4CC(C)(C)O)n[nH]2)C1 (racemic) [Example 254, cis-3-(3-((4-fluoro-1-(2-hydroxy-2-methylpropyl)-2,2-dioxido-1,3-dihydrobenzo[c]isothiazol-5-yl)amino)-1H-pyrazol-5-yl)cyclopentyl isopropylcarbamate]
7 | 0.11 | 0.0032 | CCCNC(=O)O[C@H]1CC[C@@H](c2cc(Nc3ccc4c(c3F)CS(=O)(=O)N4C3COC3)n[nH]2)C1 (racemic) [Example 260, cis-3-(3-((4-fluoro-1-(oxetan-3-yl)-2,2-dioxido-1,3-dihydrobenzo[c]isothiazol-5-yl)amino)-1H-pyrazol-5-yl)cyclopentyl propylcarbamate]
8 | 0.049 | 0.0013 | CC[C@H](C)NC(=O)O[C@H]1CC[C@@H](c2cc(Nc3ccc4c(c3F)CS(=O)(=O)N4C3COC3)n[nH]2)C1 (racemic) [Example 261, cis-3-(3-((4-fluoro-1-(oxetan-3-yl)-2,2-dioxido-1,3-dihydrobenzo[c]isothiazol-5-yl)amino)-1H-pyrazol-5-yl)cyclopentyl((S)-sec-butyl)carbamate]
9 | 0.0361 | 0.0009 | CC(C)NC(=O)O[C@H]1CC[C@@H](c2cc(Nc3ccc4c(c3)CNS4(=O)=O)n[nH]2)C1 (relative stereo) [Example 2, cis-3-(3-((1,1-dioxido-2,3-dihydrobenzo[d]isothiazol-5-yl)amino)-1H-pyrazol-5-yl)cyclopentyl isopropylcarbamate]
10 | 0.029 | 0.0012 | CC(C)NC(=O)O[C@H]1CC[C@@H](c2cc(Nc3ccc4c(c3)S(=O)(=O)NC4)n[nH]2)C1 (relative stereo) [Example 3, cis-3-(3-((1,1-dioxido-2,3-dihydrobenzo[d]isothiazol-6-yl)amino)-1H-pyrazol-5-yl)cyclopentyl isopropylcarbamate]
11 | 0.184 | 0.0086 | CC(C)NC(=O)O[C@H]1CC[C@@H](c2cc(Nc3ccc4c(c3)S(=O)(=O)NC4(C)C)n[nH]2)C1 (relative stereo) [Example 4, cis-3-(5-((3,3-dimethyl-1,1-dioxido-2,3-dihydrobenzo[d]isothiazol-6-yl)amino)-1H-pyrazol-3-yl)cyclopentyl isopropylcarbamate]
12 | 0.108 | 0.0065 | CC(C)NC(=O)O[C@H]1CC[C@@H](c2cc(Nc3ccc4c(c3)C(C)(C)NS4(=O)=O)n[nH]2)C1 (relative stereo) [Example 6, cis-3-(3-((3,3-dimethyl-1,1-dioxido-2,3-dihydrobenzo[d]isothiazol-5-yl)amino)-1H-pyrazol-5-yl)cyclopentyl isopropylcarbamate]
13 | 1.54 | 0.121 | CC(C)NC(=O)O[C@H]1CC[C@@H](c2cc(Nc3cc4c(cc3F)C(C)(C)NS4(=O)=O)n[nH]2)C1 (relative stereo) [Example 8, cis-3-(3-((5-fluoro-3,3-dimethyl-1,1-dioxido-2,3-dihydrobenzo[d]isothiazol-6-yl)amino)-1H-pyrazol-5-yl)cyclopentyl isopropylcarbamate]
14 | 3.02 | 0.102 | COc1c(Nc2cc([C@@H]3CC[C@H](OC(=O)NC(C)C)C3)[nH]n2)ccc2c1CNS2(=O)=O (relative stereo) [Example 10, cis-3-(3-((4-methoxy-1,1-dioxido-2,3-dihydrobenzo[d]isothiazol-5-yl)amino)-1H-pyrazol-5-yl)cyclopentyl isopropylcarbamate]
15 | 0.14 | 0.0041 | CC(C)NC(=O)O[C@H]1CC[C@@H](c2cc(Nc3ccc4c(c3)CN(C)S4(=O)=O)n[nH]2)C1 (relative stereo) [Example 11, cis-3-(3-((2-methyl-1,1-dioxido-2,3-dihydrobenzo[d]isothiazol-5-yl)amino)-1H-pyrazol-5-yl)cyclopentyl isopropylcarbamate]
16 | 0.563 | 0.021 | CC(C)NC(=O)O[C@H]1CC[C@@H](c2cc(Nc3ccc4c(c3F)S(=O)(=O)NC4(C)C)n[nH]2)C1 (relative stereo) [Example 13, cis-3-(3-((7-fluoro-3,3-dimethyl-1,1-dioxido-2,3-dihydrobenzo[d]isothiazol-6-yl)amino)-1H-pyrazol-5-yl)cyclopentyl isopropylcarbamate]
17 | 1.09 | 0.03 | CC(C)NC(=O)O[C@H]1CC[C@@H](c2cc(Nc3cc4c(cc3F)S(=O)(=O)NC4(C)C)n[nH]2)C1 (relative stereo) [Example 14, cis-3-(3-((6-fluoro-3,3-dimethyl-1,1-dioxido-2,3-dihydrobenzo[d]isothiazol-5-yl)amino)-1H-pyrazol-5-yl)cyclopentyl isopropylcarbamate]
18 | 1.07 | 0.023 | COc1cc2c(cc1Nc1cc([C@@H]3CC[C@H](OC(=O)NC(C)C)C3)[nH]n1)CNS2(=O)=O (relative stereo) [Example 15, cis-3-(3-((6-methoxy-1,1-dioxido-2,3-dihydrobenzo[d]isothiazol-5-yl)amino)-1H-pyrazol-5-yl)cyclopentyl isopropylcarbamate]
19 | 0.385 | 0.018 | CC(C)NC(=O)O[C@H]1CC[C@@H](c2cc(Nc3ccc4c(c3)S(=O)(=O)NC4=O)n[nH]2)C1 (relative stereo) [Example 16, cis-3-(3-((1,1-dioxido-3-oxo-2,3-dihydrobenzo[d]isothiazol-6-yl)amino)-1H-pyrazol-5-yl)cyclopentyl isopropylcarbamate]
20 | 0.471 | 0.0118 | CC(C)NC(=O)O[C@H]1CC[C@@H](c2cc(Nc3ccc4c(c3)C(=O)NS4(=O)=O)n[nH]2)C1 (relative stereo) [Example 17, cis-3-(3-((1,1-dioxido-3-oxo-2,3-dihydrobenzo[d]isothiazol-5-yl)amino)-1H-pyrazol-5-yl)cyclopentyl isopropylcarbamate]
21 | 0.422 | 0.0215 | CC(C)NC(=O)O[C@H]1CC[C@@H](c2cc(Nc3ccc4c(c3)CN(c3ccc5c(c3)CNS5(=O)=O)S4(=O)=O)n[nH]2)C1 (relative stereo) [Example 18, cis-3-(3-((1,1,1′,1′-tetraoxido-2′,3′-dihydro-3H-[2,5′-bibenzo[d]isothiazol]-5-yl)amino)-1H-pyrazol-5-yl)cyclopentyl isopropylcarbamate]
22 | 1.07 | 0.305 | CC(C)NC(=O)N[C@H]1CC[C@@H](c2cc(Nc3ccc4c(c3)CNS4(=O)=O)n[nH]2)C1 (relative stereo) [Example 19, cis-1-(3-(3-((1,1-dioxido-2,3-dihydrobenzo[d]isothiazol-5-yl)amino)-1H-pyrazol-5-yl)cyclopentyl)-3-isopropylurea]
